# Laboratory results published in US4904659A, “Substituted quinoline derivatives and pharmaceutical compositions thereof” (Development Finance Corporation of New Zeland, priority 1985, dated 1990).
# Read-outs that look alike come from different tables or passages of the source.
# Columns and labels:
# [1] = Rm: lipophilic-hydrophilic balance from reversed phase partition chromatography; assay type: physicochemical; conditions: linearly related to 1-octanol/water partition coefficients
# From the text: Rm-a measure of the compound's liphophilic-hydrophilic balance from reversed phase partition chromatography. Rm is linearly related to partition coefficients obtained in the 1-octanol/water system.
# P388 leukemia = assay: In vivo antitumour activity against P388 leukemia (cells inoculated intraperitoneally); design: species or system mice (F1 hybrids of DBA/2J male x C57BL/6J female); conditions: for P388 in vivo ILS (percentage increase in lifespan) / P388 in vivo Active: P388 leukemia; for P388 in vivo ILS (percentage increase in lifespan): at optimal dose (OD), intraperitoneal, days 1, 5 and 9, control survival 11 days; for P388 in vivo Active: at the stated dose, ILS greater than 20% significant; for P388 in vivo number of long-term survivors: number in parentheses after ILS, out of a group of 6, P388 leukemia
# Procedure: (§1) OD--The optimal drug dose (in milligrams per kilogram), administered intraperitoneally as a solution in 0.1 ml of 30% v/v ethyl alcohol in water on days 1, 5 and 9 after tumour inoculation. The drug is administered as a soluble acid addition salt.
# (§2) ILSmax--The percentage increase in lifespan of treated animals over that of control animals injected with tumour alone. The average survival of control mice was 11 days (for P388 leukemia) and 17 days (for Lewis lung carcinoma) ILS values greater than 20% (P388 leukemia) and 40% (Lewis lung carcinoma) are considered statistically significant. Numbers in parentheses after ILS values indicate the number of long-term survivors (out of a group of 6).
# (§3) Y--Implies a significant value of drug activity at the stated dose.
# (§4) N--Implies no statistically significant activity.
# (§5) Both of these tumour lines were obtained as frozen cell stocks from Mason Research Inc., USA and are passaged intraperitoneally in DBA/25 mice of either sex (P388) or subcutaneously in C57BL/65 mice of either sex (LL) according to the standard methods (Cancer Chemother. Reports., 3, Part 3, p9, 1972).
# (§6) Groups of six mice (F1 hybrids of DBA/2J male x C57BL/6J female) were injected intraperitoneally (P388) or intravenously (tail vein, LL), with 10^6 tumour cells on day 0. When given in this manner, P388 cells grow diffusely in the peritoneal cavity, whereas the Lewis lung cells from distinct solid tumour nodules in the lungs. Antitumour activity is determined by published methods (European J. Cancer, 19, pp.1607-1613, 1983).
# L1210 leukemia cells = assay: Growth inhibition of cultured L1210 leukemia cells (70 h, counted cell numbers); assay type: cell-based; conditions: Mus musculus
# Lewis lung carcinoma = assay: In vivo antitumour activity against Lewis lung carcinoma (cells inoculated intravenously); design: species or system mice (F1 hybrids of DBA/2J male x C57BL/6J female); conditions: for LL in vivo ILS (percentage increase in lifespan) / LL in vivo Active: Lewis lung carcinoma; for LL in vivo ILS (percentage increase in lifespan): at optimal dose (OD), intraperitoneal, days 1, 5 and 9, control survival 17 days; for LL in vivo Active: at the stated dose, ILS greater than 40% significant; for LL in vivo number of long-term survivors: number in parentheses after ILS, out of a group of 6, Lewis lung carcinoma
# Procedure: as §1, §2, §3, §4
# LL--Is the Lewis lung carcinoma.
# as §5, §6
# bacterial cell lines = assay: In vitro antibacterial activity; assay type: cell-based; conditions: a number of bacterial cell lines
# [2] = L1210 leukemia cells, 70 h, cell numbers reduced to 50% of controls, read-out: In vitro L1210 (IC50)
chromatographic logP [1],"IC50 (L1210 leukemia cells; L1210 leukemia cells, 70 h, cell numbers reduced to 50% of controls, read-out: In vitro L1210 (IC50), cell printed with unit nm)",IC50 (L1210 leukemia cells; [2]),SMILES,P388 in vivo ILS (percentage increase in lifespan) (P388 leukemia),P388 in vivo Active (P388 leukemia),LL in vivo ILS (percentage increase in lifespan) (Lewis lung carcinoma),LL in vivo Active (Lewis lung carcinoma),antibacterial activity (bacterial cell lines),"IC50 (L1210 leukemia cells; L1210, 70 h, read-out: In vitro L1210 (IC50))",LL in vivo number of long-term survivors (Lewis lung carcinoma),P388 in vivo number of long-term survivors (P388 leukemia)
-0.16,1290 nM,–,COc1ccc(-c2ccc3cccc(C(=O)NCCN(C)C)c3n2)cc1 [Compound 18],42%,Y (Implies a significant value of drug activity at the stated dose),–,–,–,–,–,–
0.21,–,1300 nM,CN(C)CCCCCNC(=O)c1cccc2ccc(-c3ccccc3)nc12 [Compound 4],< 20%,N (Implies no statistically significant activity),< 40%,N (Implies no statistically significant activity),–,–,–,–
–,–,740 nM,CC(=O)Nc1ccc(-c2ccc3cccc(C(=O)NCCN(C)C)c3n2)cc1 [Compound 22],< 20%,N (Implies no statistically significant activity),–,–,–,–,–,–
-0.33,–,27 nM,CN(C)CCNC(=O)c1cccc2ccc(-c3ccc(O)cc3)nc12 [Compound 19],22%,Y (Implies a significant value of drug activity at the stated dose),–,–,–,–,–,–
-0.18,–,290 nM,CN(C)CCNC(=O)c1cccc2ccc(-c3ccc([N+](=O)[O-])cc3)nc12 [Compound 20],71%,Y (Implies a significant value of drug activity at the stated dose),85%,Y (Implies a significant value of drug activity at the stated dose),–,–,–,–
–,–,860 nM,COc1cccc(-c2ccc3cccc(C(=O)NCCN(C)C)c3n2)c1 [Compound 11],46%,Y (Implies a significant value of drug activity at the stated dose),–,–,–,–,–,–
–,–,600 nM,CN(C)CCNC(=O)c1cccc2ccc(-c3ccc(Br)cc3)nc12 [Compound 15],72%,Y (Implies a significant value of drug activity at the stated dose),–,–,–,–,–,–
–,–,1290 nM,CN(C)CCNC(=O)c1cccc2ccc(-c3ccc(-c4ccccc4)cc3)nc12 [Compound 17],< 20%,N (Implies no statistically significant activity),–,–,–,–,–,–
0.05,–,1200 nM,CN(C)CCNC(=O)c1cccc2ccc(-c3cccc(Cl)c3)nc12 [Compound 10],40%,Y (Implies a significant value of drug activity at the stated dose),< 40%,N (Implies no statistically significant activity),–,–,–,–
0.15,–,8100 nM,CN(C)CCNC(=O)c1cccc2ccc(-c3ccccc3Cl)nc12 [Compound 8],< 20%,N (Implies no statistically significant activity),–,–,–,–,–,–
-0.76,–,200 nM,CN(C)CCNC(=O)c1cccc2ccc(-c3ccc(N)cc3)nc12 [Compound 21],28%,Y (Implies a significant value of drug activity at the stated dose),65%,Y (Implies a significant value of drug activity at the stated dose),–,–,–,–
0.06,–,1140 nM,CN(C)CCCNC(=O)c1cccc2ccc(-c3ccccc3)nc12 [Compound 2],71%,Y (Implies a significant value of drug activity at the stated dose),< 40%,N (Implies no statistically significant activity),–,–,–,–
-0.38,–,1330 nM,CN(C)CCNC(=O)c1cccc2ccc(-c3ccc(NS(C)(=O)=O)cc3)nc12 [Compound 23],< 20%,N (Implies no statistically significant activity),–,–,–,–,–,–

# The next lines start with the compound.
SMILES,chromatographic logP [1],"IC50 (L1210 leukemia cells; L1210 leukemia cells, 70 h, cell numbers reduced to 50% of controls, read-out: In vitro L1210 (IC50), cell printed with unit nm)",IC50 (L1210 leukemia cells; [2]),P388 in vivo ILS (percentage increase in lifespan) (P388 leukemia),P388 in vivo Active (P388 leukemia),LL in vivo ILS (percentage increase in lifespan) (Lewis lung carcinoma),LL in vivo Active (Lewis lung carcinoma),antibacterial activity (bacterial cell lines),"IC50 (L1210 leukemia cells; L1210, 70 h, read-out: In vitro L1210 (IC50))",LL in vivo number of long-term survivors (Lewis lung carcinoma),P388 in vivo number of long-term survivors (P388 leukemia)
CN(C)CCNC(=O)c1cccc2ccc(-c3ccccc3)nc12 [Compound 1],-0.01,–,–,91%,Y (Implies a significant value of drug activity at the stated dose),70%,Y (Implies a significant value of drug activity at the stated dose),show in vitro activity against a number of bacterial cell lines,1300 nM,4,–
CN(C)CCNC(=O)c1cccc2ccc(-c3ccc(I)cc3)nc12 [Compound 16],–,–,–,48%,Y (Implies a significant value of drug activity at the stated dose),–,–,–,–,–,–
CN(C)CCNC(=O)c1cccc2ccc(-c3cccnc3)nc12 [Compound 9],-0.58,–,840 nM,58%,Y (Implies a significant value of drug activity at the stated dose),52%,Y (Implies a significant value of drug activity at the stated dose),–,–,2,–
CN(C)CCNC(=O)c1cccc2ccc(-c3ccc(F)cc3)nc12 [Compound 13],–,–,–,< 20%,N (Implies no statistically significant activity),–,–,–,–,–,–
CN(C)CCNC(=O)c1cc([N+](=O)[O-])cc2ccc(-c3ccccc3)nc12 [Compound 26],–,–,–,63%,Y (Implies a significant value of drug activity at the stated dose),–,–,–,–,–,–
CN(C)CCNC(=O)c1ccc(Cl)c2ccc(-c3ccccc3)nc12 [Compound 25],–,–,–,63%,Y (Implies a significant value of drug activity at the stated dose),–,–,–,–,–,–
CN(C)CCNC(=O)c1cccc2ccc(-c3ccc(Cl)cc3)nc12 [Compound 14],0.05,–,1170 nM,52%,Y (Implies a significant value of drug activity at the stated dose),91%,Y (Implies a significant value of drug activity at the stated dose),–,–,4,–
CN(C)CCNC(=O)c1cccc2ccc(-c3ccccn3)nc12 [Compound 7],-1.43,–,1640 nM,73%,Y (Implies a significant value of drug activity at the stated dose),91%,Y (Implies a significant value of drug activity at the stated dose),–,–,–,3
CN(C)CCNC(=O)c1cccc2ccc(-c3ccncc3)nc12 [Compound 12],-0.87,–,170 nM,145%,Y (Implies a significant value of drug activity at the stated dose),132%,Y (Implies a significant value of drug activity at the stated dose),show in vitro activity against a number of bacterial cell lines,–,3,2
O=C(NCCNCCO)c1cccc2ccc(-c3ccccc3)nc12 [Compound 5],–,–,–,< 20%,N (Implies no statistically significant activity),–,–,–,–,–,–
CN(C)CCCCNC(=O)c1cccc2ccc(-c3ccccc3)nc12 [Compound 3],0.14,–,680 nM,93%,Y (Implies a significant value of drug activity at the stated dose),148%,Y (Implies a significant value of drug activity at the stated dose),–,–,2,–
